Source: patent US20220306695A1, “COMPSTATIN ANALOGUES AND THEIR MEDICAL USES” (priority 2019, published 2022)
Starred links: 1 amine or outer side, 2 acyl side, 3 side chain; linkers in the order of their positions; H or OH if unused. Positions of bridges follow the written chain, without caps; N, C: chain ends. Non-standard residues stand in square brackets, D forms with d. Residues, ends and D or L forms follow the SMILES beside them. Groups on a side chain read outwards from the residue. *: point of attachment. Trp(1-Me) = Cn1cc(C[C@H](N)C(=O)O)c2ccccc21; C18 diacid = O=C(O)CCCCCCCCCCCCCCCCC(=O)*; γGlu = O=C(O)[C@H](CCC(=O)[*:2])N[*:1]; Sar = CNCC(=O)O

What was measured:
[1] = system: classical complement pathway; experiment: In vitro haemolysis assay (inhibition of classical complement pathway); type: cell-based, human; conditions: Table 3; human serum, sensitized sheep red blood cells; read-out: IC50[nM], in vitro analysis of inhibition of hemolysis
Method in brief: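 Serially diluted compound (9 points) was preincubated 15 min at room temperature with diluted human serum, titrated per batch to give 70-90% maximal haemolysis, in Tris/casein buffer pH 7.4 with Mg2+/Ca2+. Antibody-sensitized sheep erythrocytes were then added for 30 min at 37° C, and the reaction was stopped with EDTA. Haemolysis was read at A405, with IC50 from 4PL fit.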

[2] = Solubility test at 10 mg/mL (visual inspection and light scattering); type: physicochemical; conditions: for Solubility, Condition 1 Acetate pH 4: 10 mg/mL compound in 100 mM acetate pH 4; for Solubility, Condition 2 Acetate pH 5: 10 mg/mL compound in 100 mM acetate pH 5; for Solubility, Condition 3 Phosphate pH 6: 10 mg/mL compound in 100 mM phosphate pH 6; for Solubility, Condition 4 Phosphate pH 7: 10 mg/mL compound in 100 mM phosphate pH 7; for Solubility, Condition 5 Phosphate pH 7.5: 10 mg/mL compound in 100 mM phosphate pH 7.5
Human C3 = Human C3 (human, UniProt P01024 23-1663); experiment: cell-based or functional assay
Sequence of Human C3 (P01024 23-1663 limits assumed): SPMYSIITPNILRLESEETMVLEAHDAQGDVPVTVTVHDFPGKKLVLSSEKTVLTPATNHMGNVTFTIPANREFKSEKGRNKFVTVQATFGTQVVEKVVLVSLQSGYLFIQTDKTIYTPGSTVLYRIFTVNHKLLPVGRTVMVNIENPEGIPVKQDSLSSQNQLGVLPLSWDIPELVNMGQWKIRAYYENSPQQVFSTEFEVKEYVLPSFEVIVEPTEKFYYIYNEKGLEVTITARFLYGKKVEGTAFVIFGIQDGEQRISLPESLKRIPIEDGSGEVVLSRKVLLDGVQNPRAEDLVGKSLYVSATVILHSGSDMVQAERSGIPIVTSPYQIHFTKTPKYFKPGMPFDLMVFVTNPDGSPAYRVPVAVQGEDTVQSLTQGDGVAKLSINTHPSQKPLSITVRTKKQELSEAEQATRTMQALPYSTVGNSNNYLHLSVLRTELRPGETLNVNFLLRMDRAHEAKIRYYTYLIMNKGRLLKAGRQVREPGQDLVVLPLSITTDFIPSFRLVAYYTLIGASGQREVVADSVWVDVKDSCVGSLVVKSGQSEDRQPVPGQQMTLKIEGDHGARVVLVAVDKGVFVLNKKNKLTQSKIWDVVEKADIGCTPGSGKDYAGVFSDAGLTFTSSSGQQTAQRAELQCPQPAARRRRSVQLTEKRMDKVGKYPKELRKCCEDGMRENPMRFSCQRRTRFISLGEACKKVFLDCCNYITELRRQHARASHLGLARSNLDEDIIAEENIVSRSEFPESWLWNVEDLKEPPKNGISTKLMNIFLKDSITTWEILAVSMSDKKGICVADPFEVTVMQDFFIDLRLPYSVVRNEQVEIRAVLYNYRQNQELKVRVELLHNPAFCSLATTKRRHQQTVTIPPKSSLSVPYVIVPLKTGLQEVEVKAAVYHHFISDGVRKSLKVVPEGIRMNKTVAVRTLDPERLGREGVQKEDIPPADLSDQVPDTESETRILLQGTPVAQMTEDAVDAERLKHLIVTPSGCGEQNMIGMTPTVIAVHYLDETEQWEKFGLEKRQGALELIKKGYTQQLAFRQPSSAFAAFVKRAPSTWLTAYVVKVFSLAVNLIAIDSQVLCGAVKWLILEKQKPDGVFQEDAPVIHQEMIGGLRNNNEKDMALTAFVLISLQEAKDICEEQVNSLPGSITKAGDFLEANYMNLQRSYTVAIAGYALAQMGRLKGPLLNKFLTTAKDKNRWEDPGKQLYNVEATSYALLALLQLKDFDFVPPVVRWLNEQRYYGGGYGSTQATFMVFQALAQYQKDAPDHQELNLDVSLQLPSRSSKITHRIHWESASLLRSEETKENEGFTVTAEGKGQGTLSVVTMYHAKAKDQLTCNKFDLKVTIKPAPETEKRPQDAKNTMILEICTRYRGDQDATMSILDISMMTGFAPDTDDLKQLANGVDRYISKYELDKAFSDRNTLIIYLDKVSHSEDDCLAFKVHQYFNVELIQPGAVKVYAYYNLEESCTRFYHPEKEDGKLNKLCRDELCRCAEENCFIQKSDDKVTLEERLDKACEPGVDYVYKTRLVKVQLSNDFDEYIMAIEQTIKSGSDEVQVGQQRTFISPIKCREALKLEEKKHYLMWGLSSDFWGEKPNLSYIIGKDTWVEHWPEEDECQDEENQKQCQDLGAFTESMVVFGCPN

Molecule: CC[C@H](C)[C@@H]1NC(=O)[C@@H](NC(=O)[C@H](Cc2ccc(O)cc2)NC(=O)[C@H](CCC(=O)O)NC(=O)[C@H](CO)NC(=O)CNC(=O)[C@H](CCC(=O)O)NC(=O)CCCCCCCCCCCCCCCCC(=O)O)CSSC[C@@H](C(=O)N(C)CC(=O)N[C@@H](CCC(=O)O)C(N)=O)NC(=O)[C@H](CCCNC(=N)N)NC(=O)[C@H](Cc2c[nH]cn2)NC(=O)[C@H](CCC(=O)O)NC(=O)CNC(=O)[C@H](Cc2c[nH]c3ccccc23)NC(=O)[C@H](CC(=O)O)NC(=O)[C@H](CCC(N)=O)NC(=O)[C@H](Cc2cn(C)c3ccccc23)NC1=O [Compound 108] ({C18 diacid}-EGSEYCI[Trp(1-Me)]QDWGEHRC[Sar]E-NH2; disulfide 6-16)
- IC50 [1]: < 500 nM
- Solubility, Condition 1 Acetate pH 4 [2]: − (denotes lack of solubility at the given condition, as UV absorbance at 340 nm exceeds 0.1 AU and/or it is visibly turbid or contains particles.)
- Solubility, Condition 2 Acetate pH 5 [2]: − (denotes lack of solubility at the given condition, as UV absorbance at 340 nm exceeds 0.1 AU and/or it is visibly turbid or contains particles.)
- Solubility, Condition 3 Phosphate pH 6 [2]: + (denotes solubility at the given condition, as determined by UV absorbance being less than 0.1 AU at 340 nm and the sample being clear when manually inspected.)
- Solubility, Condition 4 Phosphate pH 7 [2]: + (denotes solubility at the given condition, as determined by UV absorbance being less than 0.1 AU at 340 nm and the sample being clear when manually inspected.)
- Solubility, Condition 5 Phosphate pH 7.5 [2]: + (denotes solubility at the given condition, as determined by UV absorbance being less than 0.1 AU at 340 nm and the sample being clear when manually inspected.)

Molecule: CC[C@H](C)[C@@H]1NC(=O)[C@@H](NC(=O)[C@H](Cc2ccc(O)cc2)NC(=O)[C@H](C)NC(=O)[C@H](CO)NC(=O)CNC(=O)[C@H](CCC(=O)O)NC(C)=O)CSSC[C@@H](C(=O)N(C)CC(=O)N[C@@H](CCC(=O)O)C(=O)NCC(=O)N[C@@H](CCC(=O)O)C(=O)N[C@@H](CCCCNC(=O)CC[C@H](NC(=O)CNC(=O)CC[C@H](NC(=O)CCCCCCCCCCCCCCCCC(=O)O)C(=O)O)C(=O)O)C(N)=O)NC(=O)[C@H](CCCNC(=N)N)NC(=O)[C@H](Cc2c[nH]cn2)NC(=O)[C@H](CCC(=O)O)NC(=O)CNC(=O)[C@H](Cc2c[nH]c3ccccc23)NC(=O)[C@H](CC(=O)O)NC(=O)[C@H](CCC(N)=O)NC(=O)[C@H](Cc2cn(C)c3ccccc23)NC1=O [Compound 109] (Ac-EGSAYCI[Trp(1-Me)]QDWGEHRC[Sar]EGEK([γGlu-Gly-γGlu-C18 diacid])-NH2; disulfide 6-16)
- IC50 [1]: < 250 nM
- Solubility, Condition 1 Acetate pH 4 [2]: − (denotes lack of solubility at the given condition, as UV absorbance at 340 nm exceeds 0.1 AU and/or it is visibly turbid or contains particles.)
- Solubility, Condition 2 Acetate pH 5 [2]: + (denotes solubility at the given condition, as determined by UV absorbance being less than 0.1 AU at 340 nm and the sample being clear when manually inspected.)
- Solubility, Condition 3 Phosphate pH 6 [2]: + (denotes solubility at the given condition, as determined by UV absorbance being less than 0.1 AU at 340 nm and the sample being clear when manually inspected.)
- Solubility, Condition 4 Phosphate pH 7 [2]: + (denotes solubility at the given condition, as determined by UV absorbance being less than 0.1 AU at 340 nm and the sample being clear when manually inspected.)
- Solubility, Condition 5 Phosphate pH 7.5 [2]: + (denotes solubility at the given condition, as determined by UV absorbance being less than 0.1 AU at 340 nm and the sample being clear when manually inspected.)

Molecule: CC[C@H](C)[C@@H]1NC(=O)[C@@H](NC(=O)[C@H](Cc2ccc(O)cc2)NC(=O)[C@H](CCC(=O)O)NC(=O)[C@H](CO)NC(C)=O)CSSC[C@@H](C(=O)N(C)CC(=O)N[C@@H](CCC(=O)O)C(=O)NCC(=O)N[C@@H](CCC(=O)O)C(=O)N[C@@H](CCCCNC(=O)CC[C@H](NC(=O)CNC(=O)CC[C@H](NC(=O)CCCCCCCCCCCCCCCCC(=O)O)C(=O)O)C(=O)O)C(N)=O)NC(=O)[C@H](CCCNC(=N)N)NC(=O)[C@H](Cc2c[nH]cn2)NC(=O)[C@H](CCC(=O)O)NC(=O)CNC(=O)[C@H](Cc2c[nH]c3ccccc23)NC(=O)[C@H](CC(=O)O)NC(=O)[C@H](CCC(N)=O)NC(=O)[C@H](Cc2cn(C)c3ccccc23)NC1=O [Compound 114] (Ac-SEYCI[Trp(1-Me)]QDWGEHRC[Sar]EGEK([γGlu-Gly-γGlu-C18 diacid])-NH2; disulfide 4-14)
- IC50 [1]: < 500 nM
- Solubility, Condition 1 Acetate pH 4 [2]: + (denotes solubility at the given condition, as determined by UV absorbance being less than 0.1 AU at 340 nm and the sample being clear when manually inspected.)
- Solubility, Condition 2 Acetate pH 5 [2]: + (denotes solubility at the given condition, as determined by UV absorbance being less than 0.1 AU at 340 nm and the sample being clear when manually inspected.)
- Solubility, Condition 3 Phosphate pH 6 [2]: + (denotes solubility at the given condition, as determined by UV absorbance being less than 0.1 AU at 340 nm and the sample being clear when manually inspected.)
- Solubility, Condition 4 Phosphate pH 7 [2]: + (denotes solubility at the given condition, as determined by UV absorbance being less than 0.1 AU at 340 nm and the sample being clear when manually inspected.)
- Solubility, Condition 5 Phosphate pH 7.5 [2]: + (denotes solubility at the given condition, as determined by UV absorbance being less than 0.1 AU at 340 nm and the sample being clear when manually inspected.)

Molecule: CC[C@H](C)[C@@H]1NC(=O)[C@@H](NC(=O)[C@H](Cc2ccc(O)cc2)NC(=O)[C@H](CCC(=O)O)NC(=O)[C@H](CO)NC(C)=O)CSSC[C@@H](C(=O)N(C)CC(=O)N[C@@H](CCC(=O)O)C(=O)NCC(=O)N[C@@H](CCCCN)C(=O)N[C@@H](CCCCNC(=O)CC[C@H](NC(=O)CNC(=O)CC[C@H](NC(=O)CCCCCCCCCCCCCCCCC(=O)O)C(=O)O)C(=O)O)C(N)=O)NC(=O)[C@H](CCCNC(=N)N)NC(=O)[C@H](Cc2c[nH]cn2)NC(=O)[C@H](CCC(=O)O)NC(=O)CNC(=O)[C@H](Cc2c[nH]c3ccccc23)NC(=O)[C@H](CC(=O)O)NC(=O)[C@H](CCC(N)=O)NC(=O)[C@H](Cc2cn(C)c3ccccc23)NC1=O [Compound 115] (Ac-SEYCI[Trp(1-Me)]QDWGEHRC[Sar]EGKK([γGlu-Gly-γGlu-C18 diacid])-NH2; disulfide 4-14)
- IC50 [1]: < 250 nM
- Solubility, Condition 1 Acetate pH 4 [2]: − (denotes lack of solubility at the given condition, as UV absorbance at 340 nm exceeds 0.1 AU and/or it is visibly turbid or contains particles.)
- Solubility, Condition 2 Acetate pH 5 [2]: − (denotes lack of solubility at the given condition, as UV absorbance at 340 nm exceeds 0.1 AU and/or it is visibly turbid or contains particles.)
- Solubility, Condition 3 Phosphate pH 6 [2]: + (denotes solubility at the given condition, as determined by UV absorbance being less than 0.1 AU at 340 nm and the sample being clear when manually inspected.)
- Solubility, Condition 4 Phosphate pH 7 [2]: + (denotes solubility at the given condition, as determined by UV absorbance being less than 0.1 AU at 340 nm and the sample being clear when manually inspected.)
- Solubility, Condition 5 Phosphate pH 7.5 [2]: + (denotes solubility at the given condition, as determined by UV absorbance being less than 0.1 AU at 340 nm and the sample being clear when manually inspected.)

B1: Compound 4 (peptide)
peptide: Ac-ICI[Trp(1-Me)]QDWGEHRCT-NH2
modifications: disulfide 2-12
SMILES: CC[C@H](C)[C@H](NC(C)=O)C(=O)N[C@H]1CSSC[C@@H](C(=O)N[C@H](C(N)=O)[C@@H](C)O)NC(=O)[C@H](CCCNC(=N)N)NC(=O)[C@H](Cc2c[nH]cn2)NC(=O)[C@H](CCC(=O)O)NC(=O)CNC(=O)[C@H](Cc2c[nH]c3ccccc23)NC(=O)[C@H](CC(=O)O)NC(=O)[C@H](CCC(N)=O)NC(=O)[C@H](Cc2cn(C)c3ccccc23)NC(=O)[C@H]([C@@H](C)CC)NC1=O
- IC50[nM], inhibition of hemolysis (Human C3): < 100 nM
